Experimental data reported in patent US7252822B2, “Methods for treating post-surgical pain by administering an anti-nerve growth factor antagonist” (Rinat Neuroscience Corp., priority 2002, dated 2007).

Key:
[1] = tested on: Male Sprague-Dawley rats; assay: Wound healing after dorsal skin incision: proportion of intact wounds; type: in vivo; conditions: rat, 5 mg/kg daily for five days intramuscularly, positive control; p<0.0005 vs saline or 911; FIG. 8
Excerpt: Male Sprague-Dawley rats weighing 250-350 grams were purchased from Harlan (Wisconsin) were brought into the facility and acclimated for at least one week. Animals were anaesthetized with isoflurane and the dorsal surface (back) was shaved and cleaned with povidone iodine followed by an alcohol pad. A 2.5 cm incision through the skin was made on the midline between the scapulae. Bleeding was controlled with pressure with a gauze pad. The wound was closed with four single 4-0 ethilon sutures and the animals were allowed to recover. Animals were then divided into three groups: one group receiving a single does of mouse monoclonal anti-NGF antibody 911 at the time of surgery (1 mg/kg, i.p.); one group receiving Ketorolac (5 mg/kg daily for five days starting the day of surgery, intramuscularly (IMO) as a positive control; and a saline treated control group (negative control). Ketoralac is known to inhibit wound healing. Haws et al. (1996) Ann Plast Surg. 37(2):147-51; Gerstenfeld et al. (2003) J Orthop Res. 21(4):670-5.
The area of the incision was examined and photographed daily starting at day one post surgery. […] Incisions were scored as “intact” if the entire incision remained closed, and “failed” if some or all of the incision re-opened. Results were expressed as the proportion of intact wounds (i.e., the number of intact wounds divided by the total number of animals scored).

[2] = tested on: Male Sprague Dawley rats; assay: Post-surgical pain model (hind paw incision): resting pain, cumulative pain score; type: in vivo; conditions: rat
Experimental: We used a pain model that mimics post surgical pain to assess the efficacy of treatment with anti-NGF antibody 911 (a mouse monoclonal antibody; see Hongo, et al., Hybridoma 19:215-227 (2000). Each experiment involved 16 animals (n=8 per group). The anti-NGF antibody was injected intra peritoneal (i.p.) at various concentratiosn per experiment (35 or 7 milligrams per kilogram) 15 hours pre-incision. The control group received no antibody but was injected i.p. with a saline solution.
Animals. Male Sprague Dawley rats weighting between 220-240 grams were purchased from Harlan (San Diego) and acclimated to the animal facility for one week prior to surgery.
Surgery. The surgery was based on the procedure described by Brennan, et al. Pain 64:493-501 (1996). Animals were anesthetized with a 2% isoflurane in air mixture that was maintained during surgery via a nose cone. The plantar surface of the right hind paw was prepared with a povidone-iodine pad, and a 1-cm central longitudinal incision was made through skin and fascia, starting 0.5 cm from the edge of the heel and extending toward the toes. Measurements were made with a ruler with the foot held in a flexed position. The plantaris muscle was elevated using curved forceps and incised longitudinally. The muscle was incised through its full depth, between the origin and insertion. Bleeding was controlled throughout surgery by pressure applied through a gauze pad. The wound was closed with two mattress sutures (5-0 ethilon black monofilament). These sutures were knotted 5-6 times, with the first knot loosely tied. The wound site was swabbed with bacitracin solution. Animals were allowed to recover and rest in clean cages for two hours or more before behavioral testing began.
Evaluating resting pain. A cumulative pain score was used to assess pain related to weight bearing. Animals were placed on a plastic mesh (grid: 8 mm^2) in clear plastic cages that were elevated on a platform (h: 18″) allowing inspection of the underside of their paws. After a 20 minute acclimation period, weight bearing was assessed on a scale of 0 to 2. A score of 0 was given if the paw was blanched or pressed against the mesh, indicating full weight bearing. A score of 1 was given if the paw was favored with the skin just touching the mesh, with no blanching or indentation of the skin. A score of 2 was given if the paw was held completely off the mesh. Flinching the paw was considered a 2 if the rat was still at rest. […] The sum of 6 scores (0-12) obtained during ½ hour was used to assess pain in the incised foot. Frequency of scores of 2 was also calculated and used to assess the incidence of severe pain or total guarding of the paw by the animal. Each animal was tested 24 hours before surgery (baseline), and 2 h, 24 h, 48 h, and 72 h postoperatively. […]

[3] = biological target: T1, human NGF (human, UniProt P01138 122-239, limits assumed); assay: binding affinity; method not given
T1 construct: also called hNGF; human nerve growth factor
T1 sequence (P01138 122-239 limits assumed): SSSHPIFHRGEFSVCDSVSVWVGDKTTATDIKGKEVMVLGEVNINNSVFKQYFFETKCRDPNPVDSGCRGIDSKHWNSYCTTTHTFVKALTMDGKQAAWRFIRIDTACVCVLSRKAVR

For `O=C(c1ccccc1)c1ccc2n1CCC2C(=O)O` (stereo not drawn) [ketorolac], the “wound healing (proportion of intact wounds)” value [1] was “significantly inhibited”.

For `COC(=O)[C@@]1(O)C[C@H]2O[C@]1(C)n1c3ccccc3c3c4c(c5c6ccccc6n2c5c31)C(=O)NC4` [K252a], the “cumulative resting pain score three hours after dosing” value ([2]; in vivo, ip, 4 mg/kg) was “significantly reduced resting pain” and the “resting pain reduction compared with anti-NGF antibody in similar experiments” value ([2]; in vivo, ip, 4 mg/kg) was “reduced resting pain to the same extent that treatment with anti-NGF antibody did”.

B1: humanized anti-NGF antibody E3 (antibody, V domains shown)
VH: QVQLQESGPGLVKPSETLSLTCTVSGFSLIGYDLNWIRQPPGKGLEWIGIIWGDGTTDYNSAVKSRVTISKDTSKNQFSLKLSSVTAADTAVYYCARGGYWYATSYYFDYWGQGTLVTVS
VL: DIQMTQSPSSLSASVGDRVTITCRASQSISNNLNWYQQKPGKAPKLLIYYTSRFHSGVPSRFSGSGSGTDFTFTISSLQPEDIATYYCQQEHTLPYTFGQGTKLEIKR
B1 gave a Kd [3] of ~0.07 nM.

B2: E3: humanized mouse anti-NGF monoclonal antibody; human IgG2a constant region with A330P331 to S330S331, kappa light chain, variable regions SEQ ID NO:1 and 2 (antibody, V domains shown)
VH: B1 VH
VL: DIQMTQSPSSLSASVGDRVTITCRASQSISNNLNWYQQKPGKAPKLLIYYTSRFHSGVPSRFSGSGSGTDFTFTISSLQPEDIATYYCQQEHTLPYTFGQGTKLEIKRT
For B2, the “resting pain (cumulative pain score) 24 hours after surgery” value ([2]; 0.02 mg/kg to 1 mg/kg i.p. 15 hours pre-incision, p<0.05 vs saline, FIG. 4) was “significantly reduced resting pain” and the “resting pain (cumulative pain score) 24 hours after surgery” value ([2]; 0.5 mg/kg i.v. two hours after incision, vs saline, FIG. 5) was “significantly (p<0.05) reduced resting pain”.
